Counter-ions that a name gives are not always drawn.
Molecular target: Cdc7/Dbf4 (Homo sapiens, UniProt O00311)
Experiment: Cdc7 Biochemical Assay Method 3: Cdc7/Dbf4 Enzyme TR-FRET Assay measuring pS40MCM2
Conditions: 1 μM ATP, read-out: Biochemical Method 3 (pIC50) (converted)
Procedure: This protocol describes a method for assaying a compounds' ability to inhibit Cdc7 activity by measuring pS40MCM2 levels in a Cdc7/Dbf4 Enzyme TR-FRET Assay.
2.5 nM Cdc7/Dbf4 was incubated with 100 nM of biotin-labelled peptide 35-TDALTS(pS)PGRDLP in the presence of 1 μM ATP at 25° C. for 120 minutes. The phosphorylation of the peptide was detected using TR-FRET. Anti-Mcm2 (pS40) antibody, Terbium anti-rabbit secondary antibody and Streptavidin-Alexa Fluor488 form the detection system.

Cdc7/Dbf4, sequence (O00311 whole entry): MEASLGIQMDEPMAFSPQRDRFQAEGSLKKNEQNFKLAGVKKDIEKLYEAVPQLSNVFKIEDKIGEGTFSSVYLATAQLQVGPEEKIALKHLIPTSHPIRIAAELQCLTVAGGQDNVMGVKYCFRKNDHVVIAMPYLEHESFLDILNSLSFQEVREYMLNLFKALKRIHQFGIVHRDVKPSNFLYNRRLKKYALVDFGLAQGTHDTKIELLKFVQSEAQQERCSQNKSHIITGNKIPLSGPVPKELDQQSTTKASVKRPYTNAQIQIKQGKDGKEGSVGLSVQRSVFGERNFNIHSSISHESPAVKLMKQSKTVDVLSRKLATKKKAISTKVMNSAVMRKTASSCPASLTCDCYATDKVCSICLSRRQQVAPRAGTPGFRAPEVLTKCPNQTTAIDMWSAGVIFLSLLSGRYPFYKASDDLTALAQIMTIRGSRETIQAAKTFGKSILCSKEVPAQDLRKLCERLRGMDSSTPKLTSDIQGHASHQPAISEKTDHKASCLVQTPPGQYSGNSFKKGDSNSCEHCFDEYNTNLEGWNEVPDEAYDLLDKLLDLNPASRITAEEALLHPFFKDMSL
Cdc7/Dbf4, sequence (Q9UBU7 whole entry partner): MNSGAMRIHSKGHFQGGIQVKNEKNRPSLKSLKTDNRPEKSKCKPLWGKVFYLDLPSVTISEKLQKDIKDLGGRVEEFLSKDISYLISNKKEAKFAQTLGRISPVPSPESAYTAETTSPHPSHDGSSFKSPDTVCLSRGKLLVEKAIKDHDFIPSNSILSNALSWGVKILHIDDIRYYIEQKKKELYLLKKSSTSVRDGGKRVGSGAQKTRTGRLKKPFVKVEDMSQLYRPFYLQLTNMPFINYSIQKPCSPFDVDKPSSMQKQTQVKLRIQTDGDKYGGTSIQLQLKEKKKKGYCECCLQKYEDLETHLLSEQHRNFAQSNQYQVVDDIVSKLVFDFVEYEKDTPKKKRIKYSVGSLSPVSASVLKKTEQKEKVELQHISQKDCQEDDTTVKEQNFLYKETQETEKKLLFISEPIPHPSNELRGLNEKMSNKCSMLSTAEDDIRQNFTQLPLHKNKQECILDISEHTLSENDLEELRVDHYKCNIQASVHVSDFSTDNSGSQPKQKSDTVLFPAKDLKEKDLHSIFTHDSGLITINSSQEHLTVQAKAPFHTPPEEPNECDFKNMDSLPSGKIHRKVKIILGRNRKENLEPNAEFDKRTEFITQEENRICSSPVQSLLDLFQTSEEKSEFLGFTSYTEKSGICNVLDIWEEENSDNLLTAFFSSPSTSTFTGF

Compared with `CC(C)(O)[C@H]1CN(c2nc(-c3ccnc(F)c3)[nH]c(=O)c2Cl)CCN1` [Compound 187], `O=c1[nH]c(-c2ccnc(F)c2)nc(N2CC[C@@H](O)C2)c1Cl` [Compound 214] is 8-fold higher in IC50: 1.86 nM for the first, 14.8 nM for the second.

Compared with `O=c1[nH]c(-c2ccnc(F)c2)nc(N2C[C@H](O)C[C@H](O)C2)c1Cl` [Compound 189], `O=c1[nH]c(-c2ccnc(F)c2)nc(N2CC[C@H](O)C2)c1Cl` [Compound 215] is 8.7-fold higher in IC50: 1.62 nM for the first, 14.1 nM for the second.

`O=c1[nH]c(-c2ccnc(F)c2)nc(SC2CCOCC2)c1Cl` [Compound 191] and `O=c1[nH]c(-c2ccnc(F)c2)nc(SC2CCNCC2)c1Cl` [Compound 193] are within 1.5-fold of each other in IC50: 3.72 nM for the first, 2.88 nM for the second.

Compared with `O=c1[nH]c(-c2ccnc(F)c2)nc(OC2CNC2)c1Cl` [Compound 194], `O=c1[nH]c(-c2ccnc(F)c2)nc(OC2COC2)c1Cl` [Compound 199] is 27-fold higher in IC50: 14.5 nM for the first, 389 nM for the second.

Compared with `N[C@H]1CC[C@@H](Oc2nc(-c3ccnc(F)c3)[nH]c(=O)c2Cl)C1` [Compound 195], `O=c1[nH]c(-c2ccnc(F)c2)nc(O[C@H]2CCOC2)c1Cl` [Compound 200] is 6.2-fold higher in IC50: 1.32 nM for the first, 8.13 nM for the second.

First: O=c1[nH]c(-c2ccnc(F)c2)nc(N2CC3(CNC3)C2)c1Cl [Compound 198]
Second: O=c1[nH]c(-c2ccnc(F)c2)nc(N2CCC3(CCNC3)C2)c1Cl (stereo not shown) [Compound 218]
The IC50 of the first is 8.1-fold higher: 66.1 nM for the first, 8.13 nM for the second.

First: O=c1[nH]c(-c2ccnc(F)c2)nc(N2CCOC(CN3CCCCC3)C2)c1Cl (stereo not shown) [Compound 202]
Second: O=c1[nH]c(-c2ccnc(F)c2)nc(N2CCC(CN3CCOCC3)C2)c1Cl (stereo not shown) [Compound 212]
The IC50 of the first is 7.9-fold lower: 10 nM for the first, 79.4 nM for the second.

Going from `O=c1[nH]c(-c2ccnc(F)c2)nc(N2CCCC(F)(F)CC2)c1Cl` [Compound 204] to `O=c1[nH]c(-c2ccnc(F)c2)nc(N2CCC3(CCCN3)C2)c1Cl` (stereo not shown) [Compound 217], the IC50 rises from 4.07 nM to 45.7 nM (11-fold).

Compared with `O=c1[nH]c(-c2ccnc(F)c2)nc(N2CCOCC(O)C2)c1Cl` (stereo not shown) [Compound 207], `NC[C@H]1CCN(c2nc(-c3ccnc(F)c3)[nH]c(=O)c2Cl)C1` [Compound 219] is 5.2-fold higher in IC50: 1.29 nM for the first, 6.76 nM for the second.

Going from `O=c1[nH]c(-c2ccnc(F)c2)nc(N2CCC[C@H](Nc3ccccc3)C2)c1Cl` [Compound 209] to `O=c1[nH]c(-c2ccnc(F)c2)nc(N2CCC3(CCCCN3)C2)c1Cl` (stereo not shown) [Compound 213], the IC50 falls from 85.1 nM to 53.7 nM (1.6-fold).

Going from `CN(c1nc(-c2ccnc(F)c2)[nH]c(=O)c1Cl)C1CCNCC1(C)C` (stereo not shown) [Compound 210] to `CC1(C)CNCCC1Nc1nc(-c2ccnc(F)c2)[nH]c(=O)c1Cl` (stereo not shown) [Compound 211], the IC50 rises from 4.37 nM to 17.4 nM (4-fold).

Work on `O=c1[nH]c(-c2ccnc(F)c2)nc(N2CCOC3CNCC32)c1Cl` (stereo not shown) [Compound 216] yielded an IC50 of 1.7 nM.

Molecular target: Cdc7/ASK (Homo sapiens, UniProt O00311)
Experiment: Cdc7 Biochemical Assay Method 1: 384 well ELISA, whole protein substrate MCM2, antibody against Phospho MCM2 (S53)
Set-up: purchased
Conditions: 2 μM ATP, read-out: Biochemical Method 1 (pIC50) (converted)
Procedure: This protocol describes a method for assaying Cdc7/ASK for activity. The assay is a 384 well ELISA assay, utilising a whole protein substrate (MCM2) and an antibody against Phospho MCM2 (S53). This site is thought to be specific to Cdc7/ASK phosphorylation and the assay has been validated using knockout mutants. Reagents • TBS: 25 mM Tris pH 7.2, 150 mM NaCl. (Dilute 10× stock by 1:10). • Wash Buffer: TBS+0.05% Tween 20. (Add 100 mL 1 M Tris pH 7.2, 120 mL 5 M NaCl and 2 mL 100% Tween 20 per 4 L). • Kinase Reaction Buffer: 50 mM Tris-HCl pH 8.5, 10 mM MgCl2, 1 mM DTT. (Dilute 10× stock by 1:10 and add 100 μL 1M DTT per 100 mL prior to assay). • Diethanolamine Buffer: 1 M diethanolamine pH 9.8, 0.5 mM MgCl2. • Stop Solution: 1 M NaOH. • MCM2 was expressed and purified in-house and used in the assay at a final assay concentration of 436 ng/well. • Cdc7/ASK is purchased from commercial suppliers and used in the assay at a final assay concentration of 37.97 ng/well or 20.63 nM. • ATP used as a final assay concentration of 2 μM. • Primary Antibody: Rabbit anti-Phospho MCM2 (S53 Antibody (BL3353)), is purchased from commercial suppliers at 0.2 mg/mL and used at a final assay concentration by diluting 1:800 in TBS. • Secondary Antibody: Anti-Rabbit/AP Antibody is supplied is purchased from commercial suppliers at 1 mg/mL and used at a final assay concentration by diluting 1:2000 in TBS. • Development Reagent: Dissolve one 20 mg PNPP tablet (Sigma, product […], 20 mg per tablet) per 20 mL diethanolamine Buffer (or one 5 mg PNPP tablet per 5 mL diethanolamine buffer). Cover in foil and leave shaking on a roller shaker at room temperature for up to an hour to dissolve. Methods • 1. Add 20 μL 1× working stock of Substrate (MCM2) in TBS to all wells of a clear, 384 well, Nickel-chelate microplate to give a final concentration of […]. Incubate at room temperature for at least 1 hour. Plates can be pre-coated for 1 hour and stored at 4° C. for up to 8 days. • 2. Wash with TBS+0.05% Tween 20 (80 μL×3). • 3. Add 2 μL 10× test compounds, including the positive control, in 40% DMSO/water to 'test' wells. Add 2 μL 40% DMSO/water to 'control' and 'blank' wells. The final DMSO concentration will be 4%. • 4. Add 13 μL CDC7/ASK Kinase (1.5× stock) in Kinase Reaction Buffer to 'test' and 'control' wells to give a final concentration of […]. Add 13 μL Kinase Reaction Buffer to 'blank' wells. • 5. Add 5 μL ATP (4× stock) in Kinase Reaction Buffer to all wells to give a final concentration of 2 μM. • 6. Incubate at room temperature for 90 minutes. • 7. Wash with TBS+0.05% Tween 20 (80 μL×3). • 8. Add 20 μL 1× working solution of Primary Antibody in TBS to all wells. Incubate at room temperature for 30 minutes. • 9. Wash with TBS+0.05% Tween 20 (80 μL×3). • 10. Add 20 μL 1× working solution of Secondary Antibody in TBS to all wells. Incubate at room temperature for 30 minutes. • 11. Wash with TBS+0.05% Tween 20 (80 μL×3). • 12. Add 20 μL 1× Development Reagent to all wells. • 13. Incubate at room temperature for 2 hours. Stop the reaction by adding 20 μL Stop Solution to all wells and record Absorbance on a Pherastar plate reader. Percentage inhibition values were calculated from absorbance values, using the no compound (DMSO) and no enzyme control values as 0% and 100% inhibition, respectively. IC50 determination was performed with ExcelFit software (IDBS) using curve fit 205. Z' factors were determined for each plate tested and were all above 0.5. Method 2

Cdc7/ASK, sequence (O00311 whole entry): as the sequence (O00311 whole entry) above
Cdc7/ASK, sequence (Q9UBU7 whole entry partner): as the sequence (Q9UBU7 whole entry partner) above

First: O=c1[nH]c(-c2ccncc2)nc(N2CCCNCC2)c1Cl [Compound 115]
Second: O=C1CCN(c2nc(-c3ccncc3)[nH]c(=O)c2Cl)CCN1 [Compound 117]
The IC50 of the first is 44-fold higher: 229 nM for the first, 5.25 nM for the second.

Compared with `NC(=O)[C@H]1CCCN1c1nc(-c2ccncc2)[nH]c(=O)c1Cl` [Compound 118], `O=c1[nH]c(-c2ccncc2)nc(N2CCC(O)C2)c1Cl` (stereo not shown) [Compound 138] is 3.8-fold lower in IC50: 380 nM for the first, 100 nM for the second.

Compared with `O=CN1CCCN(c2nc(-c3ccncc3)[nH]c(=O)c2Cl)CC1` [Compound 119], `CC(C)(C)N1CCCN(c2nc(-c3ccncc3)[nH]c(=O)c2Cl)CC1` [Compound 137] is 170-fold higher in IC50: 3.55 nM for the first, 589 nM for the second.

Compared with `O=c1[nH]c(-c2ccncc2)nc(N2CCCN3CCC[C@@H]3C2)c1Cl` [Compound 120], `O=c1[nH]c(-c2ccncc2)nc(N2CC[C@@H](F)C2)c1Cl` [Compound 133] is 4.4-fold lower in IC50: 245 nM for the first, 56.2 nM for the second.

First: O=c1[nH]c(-c2ccncc2)nc(N2CC(CO)C2)c1Cl [Compound 124]
Second: O=c1[nH]c(-c2ccncc2)nc(N2CCN[C@H](CCO)C2)c1Cl [Compound 174]
The IC50 of the first is 8.5-fold higher: 263 nM for the first, 30.9 nM for the second.

First: O=c1[nH]c(-c2ccncc2)nc(N2CCC3(COC3)C2)c1Cl [Compound 126]
Second: O=c1[nH]c(-c2ccncc2)nc(N2CCN3CC(F)(F)C[C@H]3C2)c1Cl [Compound 149]
The IC50 of the first is 4.1-fold higher: 53.7 nM for the first, 13.2 nM for the second.

Compared with `O=C1CN(c2nc(-c3ccncc3)[nH]c(=O)c2Cl)CCCN1` [Compound 141], `COC(=O)[C@@H]1CN(c2nc(-c3ccncc3)[nH]c(=O)c2Cl)CCN1` [Compound 163, methyl (2S)-4-[5-chloro-6-oxo-2-(4-pyridyl)-1H-pyrimidin-4-yl]piperazine-2-carboxylate hydrochloride] is 2.1-fold lower in IC50: 145 nM for the first, 67.6 nM for the second.

Compared with `N#CCN1CCN(c2nc(-c3ccncc3)[nH]c(=O)c2Cl)CC1` [Compound 148], `CC(C)(C)N1CCN(c2nc(-c3ccncc3)[nH]c(=O)c2Cl)CC1` [Compound 155] is 29-fold higher in IC50: 33.9 nM for the first, 977 nM for the second.

Going from `COC(=O)[C@@H]1CN(c2nc(-c3ccncc3)[nH]c(=O)c2Cl)CCN1C(=O)OC(C)(C)C` [Compound 162] to `CC(C)(C)OC(=O)N1CC=C(c2nc(-c3ccncc3)[nH]c(=O)c2Cl)CC1` [Compound 405, tert-butyl 4-[5-chloro-6-oxo-2-(4-pyridyl)-1H-pyrimidin-4-yl]-3,6-dihydro-2H-pyridine-1-carboxylate], the IC50 rises from 155 nM to 562 nM (3.6-fold).

First: O=c1[nH]c(-c2ccncc2)nc(N2CCN[C@H](Cc3ccccc3)C2)c1Cl [Compound 165]
Second: O=c1[nH]c(-c2ccncc2)nc(N2CCN[C@@H](CCO)C2)c1Cl [Compound 175]
The IC50 of the first is 2.2-fold higher: 126 nM for the first, 57.5 nM for the second.

Going from `C[C@H]1CN(c2nc(-c3ccncc3)[nH]c(=O)c2Cl)[C@@H](C)CN1` [Compound 172] to `C[C@@H]1CN[C@@H](C)CN1c1nc(-c2ccncc2)[nH]c(=O)c1Cl` [Compound 173], the IC50 rises from 12.6 nM to 85.1 nM (6.8-fold).

Going from `O=c1[nH]c(-c2ccncc2)nc(N2CCNC(c3cccc(O)c3)C2)c1Cl` (stereo not shown) [Compound 178] to `COc1cccc(C2CN(c3nc(-c4ccncc4)[nH]c(=O)c3Cl)CCN2)c1` (stereo not shown) [Compound 179], the IC50 rises from 4.27 nM to 23.4 nM (5.5-fold).

Compared with `O=c1[nH]c(-c2ccnc(O)c2)nc(C2CCOCC2)c1Cl` [Compound 402, 5-chloro-2-(2-hydroxy-4-pyridyl)-4-tetrahydropyran-4-yl-1H-pyrimidin-6-one], `N#Cc1c(C2CCOCC2)nc(-c2ccncc2)[nH]c1=O` [Compound 403, 6-oxo-2-(4-pyridyl)-4-tetrahydropyran-4-yl-1H-pyrimidine-5-carbonitrile] is 4.4-fold lower in IC50: 112 nM for the first, 25.7 nM for the second.

Compared with `O=c1[nH]c(-c2ccncc2)nc(C2=CCOCC2)c1Cl` [Compound 404, 5-chloro-4-(3,6-dihydro-2H-pyran-4-yl)-2-(4-pyridyl)-1H-pyrimidin-6-one], `CC(C)(O)[C@@H]1CN(c2nc(-c3ccncc3)[nH]c(=O)c2Cl)CCN1` [Compound 407, 5-chloro-4-[(3S)-3-(1-hydroxy-1-methyl-ethyl)piperazin-1-yl]-2-(4-pyridyl)-1H-pyrimidin-6-one] is 2.8-fold lower in IC50: 166 nM for the first, 60.3 nM for the second.

For `O=c1[nH]c(-c2ccncc2)nc(C2CCOCC2)c1C(F)(F)F` [Compound 406, 2-(4-pyridyl)-4-tetrahydropyran-4-yl-5-(trifluoromethyl)-1H-pyrimidin-6-one], the IC50 was 851 nM.

Source: patent US10919896B2, “Preparation and uses of pyrimidinone derivatives” (Cancer Research Technology Limited, priority 2016, dated 2021)
